Reference: BigSolDB 2.1

CC(=O)O[C@H]1CC[C@@]2(C)C(=CC[C@@H]3[C@@H]2CC[C@]2(C)C(C(C)=O)=CC[C@@H]32)C1
Details	solubility (mole fraction)
in acetone, 278.55 K	0.00427
in acetone, 281.35 K	0.0048
in acetone, 284.75 K	0.00538
in acetone, 288.65 K	0.00622
in acetone, 291.75 K	0.00678
in acetone, 293.95 K	0.00731
in acetone, 296.75 K	0.008
in acetone, 299.05 K	0.00875
in acetone, 301.55 K	0.00955
in acetone, 304.25 K	0.0105
in cyclohexane, 291.95 K	0.00212
in cyclohexane, 300.25 K	0.00314
in cyclohexane, 302.75 K	0.00363
in cyclohexane, 305.75 K	0.00426
in cyclohexane, 309.25 K	0.0049
in cyclohexane, 312.95 K	0.00574
in cyclohexane, 315.9 K	0.00662
in cyclohexane, 320.15 K	0.00767
in cyclohexane, 322.95 K	0.00878
in cyclohexane, 327.85 K	0.0112
in cyclohexane, 332.25 K	0.0135
in cyclohexane, 336.45 K	0.0162
in cyclohexane, 340.35 K	0.019
in ethanol, 285 K	0.00103
in ethanol, 289.85 K	0.00128
in ethanol, 292.6 K	0.00144
in ethanol, 294.95 K	0.00162
in ethanol, 297.65 K	0.00185
in ethanol, 300.95 K	0.0021
in ethanol, 304.55 K	0.0024
in ethanol, 307.55 K	0.00277
in ethanol, 310.55 K	0.00319
in ethanol, 314.15 K	0.00371
in ethanol, 317.55 K	0.00432
in ethanol, 321.35 K	0.00503
in ethanol, 324.55 K	0.00583
in ethanol, 327.05 K	0.0065
in methanol, 282.75 K	0.000402
in methanol, 286.85 K	0.000491
in methanol, 291.95 K	0.000632
in methanol, 295.15 K	0.000779
in methanol, 299.95 K	0.000965
in methanol, 303.85 K	0.00112
in methanol, 309.25 K	0.00142
in methanol, 312.15 K	0.0016
in methanol, 315.55 K	0.00185
in methanol, 318.35 K	0.00215
in methanol, 320.05 K	0.00231
